Several values for one entry are separate records, joined by “and”; a condition that tells them apart may be missing. Identical values can stand only once. Entries after “also recorded” stand apart in the source; their conditions may differ.
Legend:
Type in all cases: binding
[1] = target: T1, USP7 (Homo sapiens, UniProt Q93009); test: Differential scanning fluorimetry (DSF), melting temperature shift of USP7; conditions: 8 µM protein, 250 µM compound (1:31.25)
T1 construct: USP7 catalytic domain (USP7CD) (208‐560); made in house
Description: The influence of the synthesized compounds on the melting temperature (T m) of USP7 and its mutant USP7asoc (active site only cysteine) was investigated by DSF. USP7asoc only retains the catalytic Cys223 while all the other six cysteines are mutated to serine. DSF was selected for initial assessment since it is an efficient and rapid primary screening method readily available to our lab.
An important consideration when assessing covalent inhibitors is the time dependence of covalent target occupancy and thus potency, which is determined by the reaction kinetics of the covalent binding event. To allow for drawing conclusions on compounds with slower reaction kinetics, incubation times of 30 min, 4 h, and 24 h at 20°C were chosen for the DSF screen with USP7 (Table 1 and Figures 2 and 3). The threshold at which compounds were considered (de‐)stabilizers was defined at 0.5°C. In parallel, the intrinsic reactivity of a set of representative compounds was evaluated in a glutathione reactivity assay. […] Data obtained from the GSH reactivity studies are shown in Supporting Information S2: Table S2.1 and Figures S2.1–2.3.
The melting temperatures of USP7 and USP7asoc in the presence or absence of fragments were determined by DSF on a Qiagen Rotor‐Q Model‐5‐Plex HRM real‐time PCR instrument (Qiagen, Hilden, Germany). SYPRO Orange (Life Technologies Corporation, Eugene, OR, USA) was used as a fluorescent dye at a final concentration of 5x. The protein concentration was 8 µM, and the final compound concentration was 250 µM, corresponding to a protein‐to‐compound ratio of 1:31.25. All compounds were dissolved in dimethyl sulfoxide (DMSO) and the proteins in Tris buffer (25 mM Tris pH 8.0, 150 mM NaCl, 5 mM TCEP, 5% (v/v) DMSO). All measurements were performed after 30 min, 4 h, and 24 h of incubation and at least in triplicate. DSF experiments were carried out with a constant heating rate of 270°C/h. The temperature was ramped from 28°C to 60°C–70°C with excitation and emission filters set at 470 nm and 610 nm, respectively. The melting temperatures (T m) of USP7 and USP7asoc were determined from the maxima of the first derivatives of the melting curves in OriginPro2020 (OriginLab, Northampton, MA, USA). The ∆T m was calculated by subtraction of the T m of the protein sample with pure DMSO from the T m of the protein sample mixed with compound. Error propagation was used to average multiple runs for a compound. A compound was considered to be a hit if the shift in the ∆T m was at least 0.50°C [55].

[2] = target: T2, USP7asoc (Homo sapiens, UniProt Q93009, C300S/C315S/C334S/C478S/C488S/C510S); test: Intact protein MS (UHPLC-ESI-MS), covalent modification of USP7asoc; conditions: 24 h incubation at 20°C, protein-to-compound ratio 1:31.25
T2 construct: (208‐560, C300/315/334/448/478/510S); made in house
Description: The DSF results described above were validated by UHPLC‐ESI‐MS to verify possible covalent binding through a corresponding mass shift. Intact protein MS is an important screening method in irreversible‐covalent hit identification and is especially suitable for covalent fragment‐based drug discovery (FBDD). It allows for the identification of covalent binders by detecting covalent protein‐compound adducts, thus making use of the stability of the covalent bond. USP7 was prepared in Tris buffer (25 mM Tris pH 8.0, 150 mM NaCl, 5 mM TCEP) with a protein‐to‐compound ratio of 1:31.25 and 5% (v/v) DMSO. The protein‐compound mixtures were all incubated at 20°C for 24 h on a rotating shaker. The analysis of intact protein mass was carried out using UHPLC‐ESI‐MS measurements, with data acquisition and data analysis as previously described.

[3] = target: T1, USP7; test: Intact protein MS (UHPLC-ESI-MS), covalent modification of USP7; conditions: 24 h incubation at 20°C, protein-to-compound ratio 1:31.25
Description: The DSF results described above were validated by UHPLC‐ESI‐MS to verify possible covalent binding through a corresponding mass shift. Intact protein MS is an important screening method in irreversible‐covalent hit identification and is especially suitable for covalent fragment‐based drug discovery (FBDD). It allows for the identification of covalent binders by detecting covalent protein‐compound adducts, thus making use of the stability of the covalent bond.
USP7 was prepared in Tris buffer (25 mM Tris pH 8.0, 150 mM NaCl, 5 mM TCEP) with a protein‐to‐compound ratio of 1:31.25 and 5% (v/v) DMSO. The protein‐compound mixtures were all incubated at 20°C for 24 h on a rotating shaker. The analysis of intact protein mass was carried out using UHPLC‐ESI‐MS measurements, with data acquisition and data analysis as previously described.

[4] = target: T3, USP7asoc (active site only cysteine) (Homo sapiens, UniProt Q93009, C300S/C315S/C334S/C478S/C488S/C510S); test: Differential scanning fluorimetry (DSF), melting temperature shift of USP7asoc mutant; conditions: 8 µM protein, 250 µM compound (1:31.25)
T3 construct: (208‐560, C300/315/334/448/478/510S); made in house
Description: USP7asoc only retains the catalytic Cys223 while all the other six cysteines are mutated to serine. DSF was selected for initial assessment since it is an efficient and rapid primary screening method readily available to our lab. […] An important consideration when assessing covalent inhibitors is the time dependence of covalent target occupancy and thus potency, which is determined by the reaction kinetics of the covalent binding event. To allow for drawing conclusions on compounds with slower reaction kinetics, incubation times of 30 min, 4 h, and 24 h at 20°C were chosen for the DSF screen with USP7 (Table 1 and Figures 2 and 3). The threshold at which compounds were considered (de‐)stabilizers was defined at 0.5°C. In parallel, the intrinsic reactivity of a set of representative compounds was evaluated in a glutathione reactivity assay. […] The expression and purification of USP7 catalytic domain (USP7CD) (208‐560) and USP7asoc (active site only cysteine) by using a pET24a(+)_HLT_USP7 construct were performed as previously described. […] For the USP7asoc, six of the seven cysteines are mutated to serines (208‐560, C300/315/334/448/478/510S). All utilized protein sequences are depicted in Supporting Information S2: Table S.3.1. The melting temperatures of USP7 and USP7asoc in the presence or absence of fragments were determined by DSF on a Qiagen Rotor‐Q Model‐5‐Plex HRM real‐time PCR instrument (Qiagen, Hilden, Germany). SYPRO Orange (Life Technologies Corporation, Eugene, OR, USA) was used as a fluorescent dye at a final concentration of 5x. The protein concentration was 8 µM, and the final compound concentration was 250 µM, corresponding to a protein‐to‐compound ratio of 1:31.25. All compounds were dissolved in dimethyl sulfoxide (DMSO) and the proteins in Tris buffer (25 mM Tris pH 8.0, 150 mM NaCl, 5 mM TCEP, 5% (v/v) DMSO). All measurements were performed after 30 min, 4 h, and 24 h of incubation and at least in triplicate. DSF experiments were carried out with a constant heating rate of 270°C/h. The temperature was ramped from 28°C to 60°C–70°C with excitation and emission filters set at 470 nm and 610 nm, respectively. The melting temperatures (T m) of USP7 and USP7asoc were determined from the maxima of the first derivatives of the melting curves in OriginPro2020 (OriginLab, Northampton, MA, USA). The ∆T m was calculated by subtraction of the T m of the protein sample with pure DMSO from the T m of the protein sample mixed with compound. Error propagation was used to average multiple runs for a compound. A compound was considered to be a hit if the shift in the ∆T m was at least 0.50°C [55].

T1 sequence (Q93009 with tags, fused parts or gaps): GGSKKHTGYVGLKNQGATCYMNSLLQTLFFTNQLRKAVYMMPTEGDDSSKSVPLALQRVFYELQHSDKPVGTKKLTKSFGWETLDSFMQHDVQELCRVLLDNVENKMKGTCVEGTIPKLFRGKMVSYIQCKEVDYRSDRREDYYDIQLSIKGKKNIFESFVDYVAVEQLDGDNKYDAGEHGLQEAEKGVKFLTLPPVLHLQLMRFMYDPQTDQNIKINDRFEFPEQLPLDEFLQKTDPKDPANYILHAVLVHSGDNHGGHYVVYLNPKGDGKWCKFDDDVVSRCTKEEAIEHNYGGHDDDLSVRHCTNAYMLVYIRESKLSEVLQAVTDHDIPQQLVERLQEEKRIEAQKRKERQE
T3 sequence (Q93009 with tags, fused parts or gaps C300S/C315S/C334S/C478S/C488S/C510S): as the sequence (Q93009 with tags, fused parts or gaps) above, with C96S, C111S, C130S, C274S, C284S, C306S counted along it
T2 sequence (Q93009 with tags, fused parts or gaps C300S/C315S/C334S/C478S/C488S/C510S): as the sequence (Q93009 with tags, fused parts or gaps) above, with C96S, C111S, C130S, C274S, C284S, C306S counted along it

| Structure (SMILES) | ∆T m ± SD USP7 ([1]; 30 min incubation at 20°C) | protein species in deconvoluted mass spectrum of USP7asoc [2] | protein species in deconvoluted mass spectrum of USP7 [3] | ∆T m ± SD USP7asoc ([4]; 30 min incubation at 20°C) | ∆T m ± SD USP7asoc ([4]; 4 h incubation at 20°C) | ∆T m ± SD USP7 ([1]; 4 h incubation at 20°C) | ∆T m ± SD USP7 ([1]; 24 h incubation at 20°C) | ∆T m ± SD USP7asoc ([4]; 24 h incubation at 20°C) [°C] |
| --- | --- | --- | --- | --- | --- | --- | --- | --- |
| O=[N+]([O-])c1ccc(F)nc1Nc1cc2c(-c3cnn(CCO)c3)cccc2cn1 [7f, 2‐(4‐{3‐[(6‐Fluoro‐3‐nitropyridin‐2‐yl)amino]isoquinolin‐5‐yl}‐1H‐pyrazol‐1‐yl)ethan‐1‐ol] | 0.00 ± 0.12 °C | single‐arylated USP7 and USP7asoc as a main signal | single‐arylated USP7 and USP7asoc as a main signal | 0.48 ± 0.09 °C | –0.23 ± 0.08 °C | – | – | – |
| O=[N+]([O-])c1ccc(F)nc1Nc1cc2c(-c3ccc4ccccc4c3)cccc2cn1 [7g, N‐(6‐Fluoro‐3‐nitropyridin‐2‐yl)‐5‐(naphthalen‐2‐yl)isoquinolin‐3‐amine] | 0.10 ± 0.12 °C | mainly displayed the unmodified USP7 and USP7asoc species | mainly displayed the unmodified USP7 and USP7asoc species | 0.63 °C and 0.63 ± 0.07 °C | 0.25 ± 0.10 °C | 0.30 ± 0 °C | 0.25 ± 0.09 °C | 0.38 ± 0.06 |
| O=[N+]([O-])c1ccc(F)nc1Nc1cc2c(-c3ccc(-c4cccnc4)cc3)cccc2cn1 [7h, N‐(6‐Fluoro‐3‐nitropyridin‐2‐yl)‐5‐[4‐(pyridin‐3‐yl)phenyl]isoquinolin‐3‐amine] | 0.00 ± 0.12 °C | the unmodified protein species was again dominant; also recorded: unmodified USP7 and USP7asoc as the main peak | the unmodified protein species was again dominant; also recorded: unmodified USP7 and USP7asoc as the main peak | 0.30 ± 0 °C | 0.35 ± 0.09 °C | 0.15 ± 0 °C | 0.20 ± 0.09 °C | 0.35 ± 0.04 |
| Cn1ccc(-c2cccc3cnc(Nc4nc(Cl)ccc4[N+](=O)[O-])cc23)c1 [8b, N‐(6‐Chloro‐3‐nitropyridin‐2‐yl)‐5‐(1‐methyl‐1H‐pyrrol‐3‐yl)isoquinolin‐3‐amine] | – | only showed unmodified protein for USP7asoc | unmodified protein species was dominant with an additional smaller signal of the mono‐arylated species | –0.30 ± 0 °C | 0.35 ± 0.09 °C | –0.10 ± 0.09 °C | 0.15 ± 0.09 °C | 0.45 ± 0 |
| CCn1cc(-c2cccc3cnc(Nc4nc(Cl)ccc4[N+](=O)[O-])cc23)cn1 [8c, N‐(6‐Chloro‐3‐nitropyridin‐2‐yl)‐5‐(1‐ethyl‐1H‐pyrazol‐4‐yl)isoquinolin‐3‐amine] | –0.15 ± 0.12 °C | only unmodified USP7 and USP7asoc were detected with a smaller peak corresponding to the single‐arylated protein species | only unmodified USP7 and USP7asoc were detected with a smaller peak corresponding to the single‐arylated protein species | 0.05 ± 0.09 °C | 0.25 ± 0.12 °C | 0.15 ± 0 °C | 0.15 ± 0 °C | 0.33 ± 0.08 |
| O=[N+]([O-])c1ccc(Cl)nc1Nc1cc2c(-c3cnn(C4CC4)c3)cccc2cn1 [8e, N‐(6‐Chloro‐3‐nitropyridin‐2‐yl)‐5‐(1‐cyclopropyl‐1H‐pyrazol‐4‐yl)isoquinolin‐3‐amine] | –0.40 ± 0.09 °C | mainly showed signals for unmodified USP7 and USP7asoc | mainly showed signals for unmodified USP7 and USP7asoc | – | – | –0.15 ± 0 °C | –0.15 ± 0 °C | – |
